Measured values taken from PubChem BioAssay AID1259408 (Genetic Toxicology Data Bank (GENE-TOX), 2018).
Calls of active or inactive are those of the source. How the calls were made is not given here.

System: GENE-TOX genotoxicity assays, various organisms and cells
Experiment: GENE-TOX mutagenicity studies
[1] = Species/Cell Type: Salmonella typhimurium (one or more of the five standard strains: TA98, TA100, TA1535, TA1537, and TA1538), Assay Type: Histidine reverse gene mutation, Ames assay, Assay Code: SALT, Evaluation Type: Evaluation A (Pre-1980)

Compound: COc1c2occc2cc2ccc(=O)oc12
- mutagenic call (Species/Cell Type: Aspergillus nidulans, Assay Type: Aneuploidy, chromosome aberrations, Assay Code: ASN-, Evaluation Type: Evaluation A (Pre-1980)): inactive; negative
- mutagenic call (Species/Cell Type: Aspergillus nidulans, Assay Type: Forward gene mutation, Assay Code: ASFT, Evaluation Type: Evaluation A (Pre-1980)): no conclusion
- mutagenic call (Species/Cell Type: Human lymphocytes, Assay Type: Sister-chromatid exchange (SCE) in vitro, Assay Code: SCL+, Evaluation Type: Evaluation B (Post-1980)): active; positive
- mutagenic call (Species/Cell Type: Human lymphocytes, Assay Type: Sister-chromatid exchange (SCE) in vitro, Assay Code: SCLT, Evaluation Type: Evaluation A (Pre-1980)): no conclusion
- mutagenic call (Species/Cell Type: Human, Assay Type: Sister-chromatid exchange (SCE) in vitro, Assay Code: SC1+, Evaluation Type: Evaluation B (Post-1980)): active; positive
- mutagenic call (Species/Cell Type: Human, Assay Type: Sister-chromatid exchange (SCE) in vitro, Assay Code: SC1T, Evaluation Type: Evaluation A (Pre-1980)): no conclusion
- call (Species/Cell Type: Nonhuman, Assay Type: In vivo carcinogenicity studies, Assay Code: CCGT, Evaluation Type: Evaluation A (Pre-1980)): no conclusion
- mutagenic call (Species/Cell Type: Nonhuman, Assay Type: Sister-chromatid exchange (SCE) in vitro, Assay Code: SC2T, Evaluation Type: Evaluation A (Pre-1980)): no conclusion
- mutagenic call (Species/Cell Type: Nonhuman, Assay Type: Sister-chromatid exchange (SCE) in vivo, Assay Code: SC3T, Evaluation Type: Evaluation B (Post-1980)): no conclusion
- mutagenic call (Species/Cell Type: Saccharomyces cerevisiae, Assay Type: Mitotic recombination or gene conversion, Assay Code: YEH+, Evaluation Type: Evaluation A (Pre-1980)): active; positive
- mutagenic call (Species/Cell Type: Saccharomyces cerevisiae, Assay Type: Reverse gene mutation, Assay Code: YER+, Evaluation Type: Evaluation A (Pre-1980)): active; positive
- mutagenic call [1]: no conclusion

Compound: COc1ccc(-c2csc(N)n2)cc1
- mutagenic call (Species/Cell Type: Salmonella typhimurium, Serratia marcesens, Assay Type: Forward and reverse gene mutation, host-mediated assay, Assay Code: HM2T, Evaluation Type: Evaluation A (Pre-1980)): no conclusion

Compound: O=C1C(N2CC2)=C(N2CC2)C(=O)C(N2CC2)=C1N1CC1
- mutagenic call (Species/Cell Type: Drosophila melanogaster, Assay Type: Aneuploidy, partial sex chromosome loss, chromosome aberrations, Assay Code: DAPT, Evaluation Type: Evaluation A (Pre-1980)): no conclusion
- mutagenic call (Species/Cell Type: Drosophila melanogaster, Assay Type: Aneuploidy, whole sex chromosome loss, chromosome aberrations, Assay Code: DAC+M, Evaluation Type: Evaluation A (Pre-1980)): active; positive
- mutagenic call (Species/Cell Type: Drosophila melanogaster, Assay Type: Sex-linked recessive lethal gene mutation, Assay Code: SRL+, Evaluation Type: Evaluation A (Pre-1980)): active; positive
- mutagenic call (Species/Cell Type: Neurospora crassa, Assay Type: Forward gene mutation, Assay Code: NEF+, Evaluation Type: Evaluation A (Pre-1980)): active; positive
- mutagenic call (Species/Cell Type: Neurospora crassa, Assay Type: Reverse gene mutation, Assay Code: NER+, Evaluation Type: Evaluation A (Pre-1980)): active; positive

Compound: CN[C@H]1[C@@H](O[C@@H]2C3CC#CC4O[C@@]4(C4COC(=O)O4)C#CC3=C[C@H]2OC(=O)c2c(O)ccc3c(C)cc(OC)cc23)O[C@H](C)[C@H](O)[C@@H]1O (some centres not stated)
- mutagenic call (Species/Cell Type: Escherichia coli WP2, Assay Type: Tryptophan reverse gene mutation, Assay Code: WP2+D, Dose Response: With dose response, Evaluation Type: Evaluation A (Pre-1980)): active; positive
- mutagenic call (Species/Cell Type: Escherichia coli WP2 UVRA, Assay Type: Tryptophan reverse gene mutation, Assay Code: WPU+D, Dose Response: With dose response, Evaluation Type: Evaluation A (Pre-1980)): active; positive
- mutagenic call (Species/Cell Type: Human diploid fibroblasts, Assay Type: Unscheduled DNA synthesis (UDS) in vitro, DNA effects, Assay Code: UDH+D, Dose Response: With dose response, Evaluation Type: Evaluation A (Pre-1980)): active; positive
- mutagenic call (Species/Cell Type: Nonhuman, Assay Type: Sister-chromatid exchange (SCE) in vitro, Assay Code: SC2+D, Dose Response: With dose response, Evaluation Type: Evaluation B (Post-1980)): active; positive

Compound: CCc1cn([C@H]2C[C@H](O)[C@@H](CO)O2)c(=O)[nH]c1=O
- mutagenic call (Species/Cell Type: Drosophila melanogaster, Assay Type: Sex-linked recessive lethal gene mutation, Assay Code: SRLT, Evaluation Type: Evaluation A (Pre-1980)): no conclusion
- mutagenic call (Species/Cell Type: Drosophila melanogaster, Sex: Male, Assay Type: Heritable translocation test, chromosome aberrations, Assay Code: DHTT, Evaluation Type: Evaluation A (Pre-1980)): no conclusion
- mutagenic call (Species/Cell Type: Human lymphocytes, Assay Type: Sister-chromatid exchange (SCE) in vitro, Assay Code: SCLT, Evaluation Type: Evaluation B (Post-1980)): no conclusion
- mutagenic call (Species/Cell Type: Human, Assay Type: Sister-chromatid exchange (SCE) in vitro, Assay Code: SC1T, Evaluation Type: Evaluation B (Post-1980)): no conclusion

Compound: CC1C(C)N(N=O)C(C)C(C)N1N=O (configuration not stated)
- mutagenic call [1]: no conclusion

Compound: CC/C(=C(\c1ccccc1)c1ccc(OCCN(C)C)cc1)c1ccccc1
- mutagenic call (Species/Cell Type: Human, Sex: Male, Assay Type: Sperm morphology, Assay Code: SPHT, Evaluation Type: Evaluation A (Pre-1980)): no conclusion

Compound: CCOC(C)=O
- mutagenic call (Species/Cell Type: Bacillus subtilis (H17 vs M45), Assay Type: Rec-assay, spot test, DNA effects (bacterial DNA repair), Assay Code: REWT, Evaluation Type: Evaluation A (Pre-1980)): no conclusion
- mutagenic call (Species/Cell Type: Mammalian polychromatic erythrocytes, Assay Type: Micronucleus test, chromosome aberrations, Assay Code: MNT-, Evaluation Type: Evaluation B (Post-1980)): inactive; negative

Compound: CC(=O)O[C@@H]1[C@@H](O)[C@H]2O[C@@H]3C=C(C)C(=O)[C@@H](O)[C@]3(CO)[C@]1(C)[C@]21CO1
- mutagenic call (Species/Cell Type: Bacillus subtilis (H17 vs M45), Assay Type: Rec-assay, spot test, DNA effects (bacterial DNA repair), Assay Code: REW-, Evaluation Type: Evaluation A (Pre-1980)): inactive; negative
- mutagenic call [1]: no conclusion
